Values of other authors in patent publication US20100086572A1, “RATIONAL PPI DOSAGE FORMS” (priority 2005, published 2010).
Like-named read-outs stand apart in the source and are kept apart here.

Key:
[1] = 0.5 hours
[2] = tested on: experimentally induced colitis; details: in vivo

Cc1c(OCC(F)(F)F)ccnc1C[S+]([O-])c1nc2ccccc2[nH]1 (stereo not drawn) [lansoprazole]
drug degrading in aqueous solution ([1]; pH 5, 37° C.): About 49%
drug degrading in aqueous solution ([1]; pH 6, 37° C.): ~10%
drug degrading in aqueous solution ([1]; pH 7, 37° C.): ~2%
drug degrading in aqueous solution ([1]; pH 8, 37° C.): ~1%
area under the plasma concentration curve (AUC) (30 mg once a day): 1934 ng·h/mL
area under the plasma concentration curve (AUC) (60 mg once a day): 4743 ng·h/mL
area under the plasma concentration curve (AUC) (60 mg three times a day): 14083 ng·h/mL
area under the plasma concentration curve (AUC) (60 mg twice a day): 8508 ng·h/mL
formation of experimentally induced colitis [2]: inhibits the formation of experimentally induced-induced colitis
